Test results: ChEMBL document CHEMBL3727345, “New compounds” (2012)

Target: fructose-2,6-bisphosphatase 3/4 (Homo sapiens) (UniProt Q16875+Q16877)
Assay: Inhibition of PFKFB3/PFKFB4 in human Panc1 cells assessed as fructose -2,6-bisphosphate production at 12.5 uM preincubated for 1 hr followed by addition of D-glucose measured after 2 hrs by spectrophotometry
Format: cell-based
Conditions: PANC-1

fructose-2,6-bisphosphatase 3/4 (Homo sapiens), sequence (Q16875 whole entry, looked up): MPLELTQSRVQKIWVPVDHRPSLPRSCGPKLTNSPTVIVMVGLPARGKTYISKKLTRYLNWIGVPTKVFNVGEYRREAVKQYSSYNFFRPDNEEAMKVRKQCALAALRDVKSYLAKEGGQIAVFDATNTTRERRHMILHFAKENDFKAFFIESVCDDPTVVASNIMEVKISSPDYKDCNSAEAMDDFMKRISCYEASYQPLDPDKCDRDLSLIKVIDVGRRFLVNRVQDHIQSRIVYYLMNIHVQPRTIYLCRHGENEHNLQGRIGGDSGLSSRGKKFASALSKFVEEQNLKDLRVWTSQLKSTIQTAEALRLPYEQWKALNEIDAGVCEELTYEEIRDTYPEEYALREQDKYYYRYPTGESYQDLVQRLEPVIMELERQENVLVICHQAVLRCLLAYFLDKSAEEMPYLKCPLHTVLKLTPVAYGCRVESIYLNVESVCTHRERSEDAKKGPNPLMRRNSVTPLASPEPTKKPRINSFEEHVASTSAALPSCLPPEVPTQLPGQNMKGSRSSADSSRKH
fructose-2,6-bisphosphatase 3/4 (Homo sapiens), sequence (Q16877 whole entry, looked up): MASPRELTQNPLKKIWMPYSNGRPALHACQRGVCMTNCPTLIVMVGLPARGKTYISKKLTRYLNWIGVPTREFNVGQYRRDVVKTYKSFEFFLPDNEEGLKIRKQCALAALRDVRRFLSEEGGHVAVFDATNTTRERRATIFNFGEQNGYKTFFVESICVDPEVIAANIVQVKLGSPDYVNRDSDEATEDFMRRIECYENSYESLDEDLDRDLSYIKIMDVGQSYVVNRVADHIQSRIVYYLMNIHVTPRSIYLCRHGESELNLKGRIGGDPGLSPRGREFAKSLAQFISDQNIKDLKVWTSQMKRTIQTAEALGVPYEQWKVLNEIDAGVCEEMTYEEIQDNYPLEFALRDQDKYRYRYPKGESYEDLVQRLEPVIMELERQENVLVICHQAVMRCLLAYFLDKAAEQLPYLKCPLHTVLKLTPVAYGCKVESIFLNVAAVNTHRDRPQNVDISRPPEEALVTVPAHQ

Compound	inhibition [%]
COCCOC(=O)c1cccc(NS(=O)(=O)c2sc3ccc(Cl)cc3c2C)c1	> 50
CCOC(=O)c1sc(NS(=O)(=O)c2sc3ccc(Cl)cc3c2C)nc1C	> 50
Cc1c(S(=O)(=O)Nc2cccc(C(=O)Oc3ccccc3)c2)sc2ccc(Cl)cc12	> 50
Cc1c(S(=O)(=O)Nc2cccc(C(=O)OCc3ccccc3)c2)sc2ccc(Cl)cc12	> 50
COC(=O)c1cccc(NS(=O)(=O)c2oc3ccc(C(C)C)cc3c2C)c1	> 50
Cc1c(S(=O)(=O)Nc2cccc(C(=O)OCC3CCOC3)c2)sc2ccc(Cl)cc12 (stereo not given)	> 50
CCOC(=O)c1sc(NS(=O)(=O)c2cc(-c3cc(F)ccc3F)c(Cl)s2)nc1C	> 50
CCOC(=O)c1cccc(NS(=O)(=O)c2sc3ccc(Cl)cc3c2C)c1	> 50
CCCCCOC(=O)c1cccc(NS(=O)(=O)c2sc3ccc(Cl)cc3c2C)c1	> 50
Cc1c(S(=O)(=O)Nc2cccc(C(=O)OCCn3cccc3)c2)sc2ccc(Cl)cc12	> 50
